Test results reported in US9434978B2, “Culture medium for screening or enrichment of methicillin-resistant S. aureus” (BIO-RAD INNOVATIONS, priority 2009, dated 2016).

Tested on: MSSA
Assay: Specificity of the medium on the MSSA strains
Format: cell-based, Staphylococcus aureus
Details: 8 MSSA strains; for number of MSSA strains that grew at 24 h after stress: plates 3 days at 37° C. before inoculation
Excerpt: The basal medium comprises peptone, salts, antifungal and antibacterial agents to inhibit the growth of Gram negative bacteria and fungi. The basal medium is chosen to promote the growth of staphylococci, in particular Staphylococcus aureus.
Several strains of MRSA (methicillin resistant S. aureus) and MSSA (methicillin susceptible S. aureus) have been chosen from a collection of strains. Strains were cultivated first on a non selective medium. The colonies are used to perform a “heavy inoculum or HI”, corresponding to approximately 10^8 bacteria/mL inoculated as a spot on a small portion of the plate, and a “light inoculum or LI”, corresponding to approximately 10^5 bacteria/mL streaked on a large portion of the plate. Plates were incubated for 48 h at 35-37° C. The reading was performed at 24 and 48 h of incubation time.
Abbreviations and legends to the Tables: • cefotetan (CTT) • ceftriaxone (CRO) • cefuroxime (CXM) • cefsulodin (CFS), • Cefepime (FEP) • Cefoperazone (CFP) • cefpodoxime (CPD) • moxalactam (MOX) • cefoxitin (FOX) • cefmetazole (CMT) • ceftiofur (XLN) • G: growth (if nothing else is written, “G” means growth with HI and LI at 24 h); Imp G: heavy growth; AG: absence of growth; cfu: colony forming unit; μcfu: pinpoint colonies; SENS: Sensitivity (%); SPE: Specificity (%); MRSA: methicillin-resistant Staphylococcus aureus; MSSA: methicillin-sensitive Staphylococcus aureus; MRSE: methicillin-resistant Staphylococcus epidermidis; MSSE: methicillin-sensitive Staphylococcus epidermidis; Results
When two cephalosporins are added, the stability of the formula is increased. Due to the fact that the molecules are unstable, growth of MSSA often appears after stress. The inventors have mimicked the stress due to transportation of the Petri dishes to the customer's lab, in summer, by placing the plates for 3 days at 37° C. before inoculation and incubation 24 or 48 h. The basal medium composition was the same as described in Example 1. Abbreviations have the same meaning.

SMILES	number of MSSA strains that grew at 24 h after stress	number of MSSA strains able to grow at 24 h (plates not submitted to stress)
CO/N=C(\C(=O)N[C@@H]1C(=O)N2C(C(=O)O)=C(CSc3nc(=O)c(=O)[nH]n3C)CS[C@H]12)c1csc(N)n1 [CRO, ceftriaxone]	four	one
CO[C@@]1(NC(=O)Cc2cccs2)C(=O)N2C(C(=O)O)=C(COC(N)=O)CS[C@@H]21 [FOX, cefoxitin]	4	–
CO[C@@]1(NC(=O)C(C(=O)O)c2ccc(O)cc2)C(=O)N2C(C(=O)O)=C(CSc3nnnn3C)CO[C@@H]21 (stereo partly shown) [MOX, moxalactam]	4	–
